Usually EC50 stands for the concentration needed to bring the measured effect to its halfway point.

24 compounds from US12503436B2, “Compounds and compositions for treating conditions associated with STING activity” (NOVARTIS PHARMA AG, priority 2021, dated 2025) can be followed below.

Sequence of STING (Q86WV6 whole entry R71H/G230A/H232R/R293Q): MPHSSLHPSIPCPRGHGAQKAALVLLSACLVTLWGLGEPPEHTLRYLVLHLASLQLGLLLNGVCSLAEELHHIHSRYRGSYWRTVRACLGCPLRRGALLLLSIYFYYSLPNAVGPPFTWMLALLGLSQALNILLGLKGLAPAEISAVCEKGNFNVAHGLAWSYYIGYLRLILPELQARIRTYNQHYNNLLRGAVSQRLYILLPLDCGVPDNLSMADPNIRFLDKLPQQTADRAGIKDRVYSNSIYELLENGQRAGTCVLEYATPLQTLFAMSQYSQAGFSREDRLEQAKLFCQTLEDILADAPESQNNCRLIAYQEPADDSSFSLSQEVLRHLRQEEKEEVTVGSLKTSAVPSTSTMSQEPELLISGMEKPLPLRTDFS

In the assay the target is STING (Homo sapiens, UniProt Q86WV6, G230A/H232R/R293Q/R71H). As to the kind of experiment: STING reporter assay in THP1-Dual KO-IFNAR2 cells (2′3′cGAMP stimulation, luciferase reporter). The format is cell-based. As to conditions: 15 μM 2′3′cGAMP stimulation, 24 h, read-out: Pharmaron, THP1_IFNAR2 STING 24 h Luci Normalized: GeoMean EC50. The essentials:
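THP1-Dual KO-IFNAR2 cells (2×10E6 cells/mL) with compounds at 0.0017-100 μM final, stimulated with 15 μM final 2′3′cGAMP delivered by Lipofectamine 2000; 24 h at 37 °C. Luciferase in supernatant read with QUANTI-Luc Plus; EC50 derived from luminescence.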
(In general: Reporter assays use an easily measured gene product as a stand-in for the process of interest.)
For `CO[C@H]1C[C@H](C(=O)Nc2c[nH]c3ccc(OCCc4ccc(C(F)(F)F)nc4)cc23)C1` [Compound 194, trans-3-methoxy-N-(5-(2-(6-(trifluoromethyl)pyridin-3-yl)ethoxy)-1H-indol-3-yl)cyclobutane-1-carboxamide], the EC50 lay within 200 to 1000 nM. `COC(CCc1ccc2[nH]cc(NC(=O)C3CCC3)c2c1)c1ccc(C(F)(F)F)cc1` (stereo not drawn) [Compound 133, N-(5-(3-methoxy-3-(4-(trifluoromethyl)phenyl)propyl)-1H-indol-3-yl)cyclobutanecarboxamide]: the EC50 was in the range of 200 to 1000 nM.

As for `O=C(Nc1c[nH]c2ccc(O[C@H]3C[C@H](c4ccc(C(F)(F)F)cc4)C3)cc12)C1CC(O)C1` (stereo partly drawn) [Compound 573, 3-hydroxy-N-(5-(trans-3-(4-(trifluoromethyl)phenyl)cyclobutoxy)-1H-indol-3-yl)cyclobutane-1-carboxamide], the EC50 lay within 40 to 200 nM. For the compound `CC(=O)Nc1c[nH]c2ccc(C(C)C[C@@H]3C[C@@H]4CN(CC(F)(F)F)C[C@@H]4C3)cc12` (stereo partly drawn) [Compound 538, N-(5-(1-((3aR,5r,6aS)-2-(2,2,2-trifluoroethyl)octahydrocyclopenta[c]pyrrol-5-yl)propan-2-yl)-1H-indol-3-yl)acetamide], the EC50 lay in the range of 1000 to 5000 nM.

`O=C(Nc1c[nH]c2ccc(OCCc3ccc(C(F)(F)F)cc3)cc12)C1CC(O)C1` (stereo not drawn) [Compound 180, 3-hydroxy-N-(5-(4-(trifluoromethyl)phenethoxy)-1H-indol-3-yl)cyclobutane-1-carboxamide]: the half-maximal effective concentration (EC50) was in the range of 200 to 1000 nM. Regarding `CC1(C(=O)Nc2c[nH]c3ccc(CCOc4ccc(C(F)(F)F)cc4)cc23)CC1` [Compound 399, 1-methyl-N-(5-(2-(4-(trifluoromethyl)phenoxy)ethyl)-1H-indol-3-yl)cyclopropane-1-carboxamide], the EC50 was in the range of 200 to 1000 nM. Next, `O=C(Nc1c[nH]c2ccc(OCCc3ccc(C(F)(F)F)nc3)cc12)C1CN(CC(F)(F)F)C1` [Compound 195, 1-(2,2,2-trifluoroethyl)-N-(5-(2-(6-(trifluoromethyl)pyridin-3-yl)ethoxy)-1H-indol-3-yl)azetidine-3-carboxamide]: 200 to 1000 nM; `CC(=O)Nc1c[nH]c2ccc(OC(C)Cc3ccc(C(F)(F)F)cc3)cc12` (single isomer, unassigned) [Compound 286, N-(5-((1-(4-(trifluoromethyl)phenyl)propan-2-yl)oxy)-1H-indol-3-yl)acetamide]: 1000 to 5000 nM; `CC(=O)Nc1c[nH]c2ccc(O[C@@H]3C[C@@H](c4ccc(C(F)(F)F)cc4)[C@H]3C)cc12` [Compound 443, N-(5-((1R,2R,3R)-2-methyl-3-(4-(trifluoromethyl)phenyl)cyclobutoxy)-1H-indol-3-yl)acetamide]: 200 to 1000 nM. As to `O=C(Nc1c[nH]c2ccc(O[C@H]3C[C@@H](c4ccc(C(F)(F)F)cc4)C3)cc12)C1CNC1` [Compound 537, N-(5-(cis-3-(4-(trifluoromethyl)phenyl)cyclobutoxy)-1H-indol-3-yl)azetidine-3-carboxamide], the EC50 was in the range of 5000 to 100000 nM.

On to `CC(C)(C)OC(=O)N1CC(C)(C(=O)Nc2c[nH]c3ccc(O[C@H]4C[C@H](c5ccc(C(F)(F)F)cc5)C4)cc23)C1` [Compound 568, tert-butyl 3-methyl-3-((5-(trans-3-(4-(trifluoromethyl)phenyl)cyclobutoxy)-1H-indol-3-yl)carbamoyl)azetidine-1-carboxylate], for which the concentration for a half-maximal effect (EC50) lay within 200 to 1000 nM. To `CC1(C(=O)Nc2c[nH]c3ccc(O[C@H]4C[C@H](c5ccc(C(F)(F)F)cc5)C4)cc23)CCNCC1` [Compound 460, 4-methyl-N-{5-[(1R,3R)-3-[4-(trifluoromethyl)phenyl]cyclobutoxy]-1H-indol-3-yl}piperidine-4-carboxamide] belongs 1000 to 5000 nM; to `C[C@]1(C(=O)Nc2c[nH]c3ccc(OCC[C@@H]4C[C@@H]5CN(CC(F)(F)F)C[C@@H]5C4)cc23)CC[C@H](O)CC1` [Compound 504, (1r,4R)-4-hydroxy-1-methyl-N-(5-(2-((3aR,5r,6aS)-2-(2,2,2-trifluoroethyl)octahydrocyclopenta[c]pyrrol-5-yl)ethoxy)-1H-indol-3-yl)cyclohexane-1-carboxamide], 200 to 1000 nM; to `CC1(F)CC(C(=O)Nc2c[nH]c3ccc(OCC[C@@H]4C[C@@H]5CN(CC(F)(F)F)C[C@@H]5C4)cc23)C1` (stereo partly drawn) [Compound 151, 3-fluoro-3-methyl-N-(5-(2-((3aR,5r,6aS)-2-(2,2,2-trifluoroethyl)octahydrocyclopenta[c]pyrrol-5-yl)ethoxy)-1H-indol-3-yl)cyclobutane-1-carboxamide], 200 to 1000 nM. For `CC(=O)Nc1c[nH]c2ccc(CCOc3ccc(C(F)(F)F)cc3C#N)cc12` [Compound 440, N-(5-{2-[2-cyano-4-(trifluoromethyl)phenoxy]ethyl}-1H-indol-3-yl)acetamide], the EC50 was 1000 to 5000 nM. To `CC(=O)Nc1c[nH]c2ccc(OCCn3ccc(C(F)(F)F)n3)cc12` [Compound 196, N-(5-(2-(3-(trifluoromethyl)-1H-pyrazol-1-yl)ethoxy)-1H-indol-3-yl)acetamide] belongs 5000 to 100000 nM. As to `CC(C)(C)CC(=O)Nc1c[nH]c2ccc(OCc3ccc(C(F)(F)F)cc3)cc12` [Compound 314, 3,3-dimethyl-N-(5-((4-(trifluoromethyl)benzyl)oxy)-1H-indol-3-yl)butanamide], the EC50 fell in the range of 200 to 1000 nM. Next, `O=C(Nc1c[nH]c2ccc(CCOc3ccc(C(F)(F)F)cc3)cc12)C1(C(F)(F)F)CC1` [Compound 387, 1-(trifluoromethyl)-N-(5-(2-(4-(trifluoromethyl)phenoxy)ethyl)-1H-indol-3-yl)cyclopropane-1-carboxamide]: 200 to 1000 nM; `CC(=O)Nc1c[nH]c2ccc(CCO[C@@H]3C[C@@H]4CN(CC(F)(F)F)C[C@@H]4C3)cc12` [Compound 293]: 5000 to 100000 nM; `CC(=O)Nc1c(Br)[nH]c2ccc(OCCc3ccc(C(F)(F)F)cc3)cc12` [Compound 402, N-(2-bromo-5-(4-(trifluoromethyl)phenethoxy)-1H-indol-3-yl)acetamide]: 5000 to 100000 nM. For the compound `O=C(Nc1c[nH]c2ccc(OCC[C@@H]3C[C@@H]4CN(CC(F)(F)F)C[C@@H]4C3)cc12)C1COC1` [Compound 383, N-(5-(2-((3aR,5r,6aS)-2-(2,2,2-trifluoroethyl)octahydrocyclopenta[c]pyrrol-5-yl)ethoxy)-1H-indol-3-yl)oxetane-3-carboxamide], the EC50 was 200 to 1000 nM. Consider `CC(=O)Nc1c[nH]c2ccc(CC[C@@H]3C[C@@H]4CN(CC(F)(F)F)C[C@@H]4C3)cc12` [Compound 457, N-(5-(2-((3aR,5r,6aS)-2-(2,2,2-trifluoroethyl)octahydrocyclopenta[c]pyrrol-5-yl)ethyl)-1H-indol-3-yl)acetamide], for which the EC50 fell in the range of 200 to 1000 nM. Next, `CC(=O)Nc1c[nH]c2ccc(Oc3ccc(C(F)(F)F)cc3)cc12` [Compound 124, N-(5-(4-(trifluoromethyl)phenoxy)-1H-indol-3-yl)acetamide]: 1000 to 5000 nM. As to `O=C(Nc1c[nH]c2ccc(OCCc3ccc(C(F)(F)F)cc3)cc12)[C@H]1C[C@@H](CO)C1` [Compound 533, cis-3-(hydroxymethyl)-N-(5-(4-(trifluoromethyl)phenethoxy)-1H-indol-3-yl)cyclobutane-1-carboxamide], the EC50 is 40 to 200 nM.
